Data taken from ChEMBL document CHEMBL1201862, “PubChem BioAssay data set” (2004).
The source made the active and inactive calls.

Tests used:
[1] = molecular target: Mitogen-activated protein kinase 10 (Homo sapiens, UniProt P53779); test: Dose response biochemical screening assay for inhibitors of c-Jun N-Terminal Kinase 3 (JNK3). [Related pubchem assays: 746 ]
[2] = molecular target: Peroxisome proliferator-activated receptor gamma/Nuclear receptor corepressor 2 (Homo sapiens, UniProt P37231+Q9Y618); test: Counterscreen for NR2E3 inverse agonists: TR-FRET-based biochemical high throughput dose response assay to identify inverse agonists of the interaction between peroxisome proliferator-activated receptor gamma (PPARg) and nuclear receptor co-repressor 2 (NCOR2).; assay type: functional
[3] = molecular target: Photoreceptor-specific nuclear receptor (Homo sapiens, UniProt Q9Y5X4); test: NR2E3 inverse agonists, dose response, biochemical, TR-FRET (AID 463256); assay type: functional
Photoreceptor-specific nuclear receptor, sequence (Q9Y5X4 whole entry): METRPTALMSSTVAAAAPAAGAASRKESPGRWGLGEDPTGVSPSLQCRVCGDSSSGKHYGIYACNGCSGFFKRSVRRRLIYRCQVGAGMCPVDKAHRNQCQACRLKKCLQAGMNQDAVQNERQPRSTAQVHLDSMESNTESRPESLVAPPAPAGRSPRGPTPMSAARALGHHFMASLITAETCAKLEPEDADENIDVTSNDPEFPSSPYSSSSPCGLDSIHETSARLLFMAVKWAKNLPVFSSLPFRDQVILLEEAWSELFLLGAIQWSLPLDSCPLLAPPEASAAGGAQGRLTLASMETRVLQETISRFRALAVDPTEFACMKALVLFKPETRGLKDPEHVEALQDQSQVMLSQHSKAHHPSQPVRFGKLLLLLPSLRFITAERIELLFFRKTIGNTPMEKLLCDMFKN

[4] = molecular target: Lysosomal acid glucosylceramidase (Homo sapiens, UniProt P04062); test: Dose response cell-based high throughput screening assay to identify enhancers of beta-glucosidase activity. [Related pubchem assays: 784 ]; assay type: functional
Lysosomal acid glucosylceramidase, sequence (P04062 whole entry): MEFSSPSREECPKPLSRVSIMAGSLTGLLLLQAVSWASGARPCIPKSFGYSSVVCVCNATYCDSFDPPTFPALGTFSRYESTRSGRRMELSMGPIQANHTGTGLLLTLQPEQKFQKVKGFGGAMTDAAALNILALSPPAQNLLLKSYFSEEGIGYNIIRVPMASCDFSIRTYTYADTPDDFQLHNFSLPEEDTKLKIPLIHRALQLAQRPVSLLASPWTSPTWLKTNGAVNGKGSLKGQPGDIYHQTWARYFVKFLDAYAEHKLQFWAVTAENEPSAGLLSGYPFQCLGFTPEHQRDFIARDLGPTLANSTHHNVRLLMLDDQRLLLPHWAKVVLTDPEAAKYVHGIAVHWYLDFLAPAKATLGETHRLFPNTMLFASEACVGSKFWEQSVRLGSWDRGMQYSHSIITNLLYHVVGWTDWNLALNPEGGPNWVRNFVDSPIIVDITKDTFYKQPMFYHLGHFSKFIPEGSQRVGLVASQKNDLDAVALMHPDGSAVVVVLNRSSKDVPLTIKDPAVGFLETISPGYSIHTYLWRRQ

[5] = molecular target: Glucose-6-phosphate 1-dehydrogenase (Homo sapiens, UniProt P11413); test: human G6PD enzyme inhibitors, dose response, selectivity assay for P. falciparum G6PD inhibitor project, biochemical, fluorescence (AID 504792); assay type: functional
NS3 = NS3 (Hepatitis C virus, UniProt A3EZJ3); test: PubChem AID 2173; design: species or system Hepacivirus hominis
[6] = molecular target: T1, Endoribonuclease toxin MazF (Escherichia coli K-12, UniProt P0AE70); test: fluorescent RNA oligo signal without MazF, dose response, counter-screen for MazEF activator project, biochemical, fluorescence, single-stranded RNase substrate (AID 588502); assay type: functional
T1 sequence (P0AE70 whole entry): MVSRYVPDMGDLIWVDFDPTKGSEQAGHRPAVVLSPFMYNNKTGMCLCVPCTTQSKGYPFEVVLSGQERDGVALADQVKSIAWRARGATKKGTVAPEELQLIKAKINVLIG

[7] = molecular target: T1, Endoribonuclease toxin MazF; test: MazF toxin RNase activators, dose response, biochemical, fluorescence, single-stranded RNA substrate, uHTS hits (AID 588481); assay type: functional
[8] = molecular target: T2, Heat shock protein HSP 90-alpha (Homo sapiens, UniProt P07900); assay type: functional, organism-based
Caspase-6 = molecular target: T3, Caspase-6 (Homo sapiens, UniProt P55212); test: human caspase-6 inhibitors, dose response, biochemical, VEID-R110 fluorescence, cherry-pick (AID 720632)
T3 sequence (P55212 whole entry): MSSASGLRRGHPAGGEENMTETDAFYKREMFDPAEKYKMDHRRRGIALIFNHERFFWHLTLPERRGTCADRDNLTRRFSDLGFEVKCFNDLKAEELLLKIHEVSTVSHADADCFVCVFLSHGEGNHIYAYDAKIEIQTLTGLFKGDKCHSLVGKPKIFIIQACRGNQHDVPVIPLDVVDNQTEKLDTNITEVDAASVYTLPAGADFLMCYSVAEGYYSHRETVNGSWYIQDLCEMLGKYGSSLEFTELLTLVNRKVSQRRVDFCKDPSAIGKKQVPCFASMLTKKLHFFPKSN

[9] = molecular target: T4, Heat shock factor protein 1 (Mus musculus, UniProt P38532); test: HSF1 potentiators in luciferase reporter cells, confirmation, cell-based, NIH3T3, luminescence, dose retest (AID 435004); assay type: functional;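 note: stress induced by proteasome inhibitor MG132 added 30 min after compound; luciferase reporter driven by HSF1 response element in NIH3T3 cells; actives raise luminescence as potentiators of the MG132 stress response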
T4 sequence (P38532 whole entry): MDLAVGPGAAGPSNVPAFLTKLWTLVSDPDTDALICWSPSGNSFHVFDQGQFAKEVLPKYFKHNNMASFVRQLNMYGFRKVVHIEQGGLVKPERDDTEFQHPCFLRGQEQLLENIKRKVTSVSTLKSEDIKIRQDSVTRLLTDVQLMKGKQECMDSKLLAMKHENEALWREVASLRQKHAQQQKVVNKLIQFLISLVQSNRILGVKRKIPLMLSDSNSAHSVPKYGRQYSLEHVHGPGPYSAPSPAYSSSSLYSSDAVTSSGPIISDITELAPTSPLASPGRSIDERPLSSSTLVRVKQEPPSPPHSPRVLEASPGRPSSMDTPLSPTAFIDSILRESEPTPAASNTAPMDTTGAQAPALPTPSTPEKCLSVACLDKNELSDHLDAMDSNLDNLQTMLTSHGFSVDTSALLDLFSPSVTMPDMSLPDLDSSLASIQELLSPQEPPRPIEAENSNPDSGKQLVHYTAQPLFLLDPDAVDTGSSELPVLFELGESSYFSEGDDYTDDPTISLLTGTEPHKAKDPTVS

[10] = molecular target: Voltage-gated inwardly rectifying potassium channel KCNH2 (Homo sapiens, UniProt Q12809); test: hERG protection from proarrhythmic block, potency, dose response, cell-based, thallium flux (AID 2121); assay type: ADME
[11] = Luminescence Cell-Based Dose Confirmation HTS to Identify Activators of 5'UTR Stem-Loop Driven Alpha-Synuclein mRNA Translation in H4 Neuroglioblastoma Cells. [Related pubchem assays: 1829 (Project Summary), 1814 (Primary HTS)]; assay type: functional
H4 = test: Luminescence Cell-Based Dose Response HTS to Identify Activators of 5'UTR Stem-Loop Driven Prion Protein mRNA Translation in H4 Neuroglioblastoma Cells. [Related pubchem assays: 1829 (Project Summary), 1814 (Primary HTS)]; assay type: functional; conditions: Homo sapiens
[12] = Luminescence Cell-Based Dose Response HTS to Identify Activators of Luciferase Translation or Activity in H4 […] Cells. [Related pubchem assays: 1829 (Project Summary), 1814 (Primary HTS)]; assay type: functional
[13] = molecular target: T5, Voltage-gated N-type calcium channel alpha-1B subunit/Amyloid beta A4 precursor protein-binding family A member 1 (Homo sapiens, UniProt Q00975+Q02410); test: disruptors of Mint-PDZ/N-type channel peptide interaction – biochemical, HTRF, set 2, SAR follow-up (AID 434980); assay type: functional
T5 sequence (Q00975 whole entry): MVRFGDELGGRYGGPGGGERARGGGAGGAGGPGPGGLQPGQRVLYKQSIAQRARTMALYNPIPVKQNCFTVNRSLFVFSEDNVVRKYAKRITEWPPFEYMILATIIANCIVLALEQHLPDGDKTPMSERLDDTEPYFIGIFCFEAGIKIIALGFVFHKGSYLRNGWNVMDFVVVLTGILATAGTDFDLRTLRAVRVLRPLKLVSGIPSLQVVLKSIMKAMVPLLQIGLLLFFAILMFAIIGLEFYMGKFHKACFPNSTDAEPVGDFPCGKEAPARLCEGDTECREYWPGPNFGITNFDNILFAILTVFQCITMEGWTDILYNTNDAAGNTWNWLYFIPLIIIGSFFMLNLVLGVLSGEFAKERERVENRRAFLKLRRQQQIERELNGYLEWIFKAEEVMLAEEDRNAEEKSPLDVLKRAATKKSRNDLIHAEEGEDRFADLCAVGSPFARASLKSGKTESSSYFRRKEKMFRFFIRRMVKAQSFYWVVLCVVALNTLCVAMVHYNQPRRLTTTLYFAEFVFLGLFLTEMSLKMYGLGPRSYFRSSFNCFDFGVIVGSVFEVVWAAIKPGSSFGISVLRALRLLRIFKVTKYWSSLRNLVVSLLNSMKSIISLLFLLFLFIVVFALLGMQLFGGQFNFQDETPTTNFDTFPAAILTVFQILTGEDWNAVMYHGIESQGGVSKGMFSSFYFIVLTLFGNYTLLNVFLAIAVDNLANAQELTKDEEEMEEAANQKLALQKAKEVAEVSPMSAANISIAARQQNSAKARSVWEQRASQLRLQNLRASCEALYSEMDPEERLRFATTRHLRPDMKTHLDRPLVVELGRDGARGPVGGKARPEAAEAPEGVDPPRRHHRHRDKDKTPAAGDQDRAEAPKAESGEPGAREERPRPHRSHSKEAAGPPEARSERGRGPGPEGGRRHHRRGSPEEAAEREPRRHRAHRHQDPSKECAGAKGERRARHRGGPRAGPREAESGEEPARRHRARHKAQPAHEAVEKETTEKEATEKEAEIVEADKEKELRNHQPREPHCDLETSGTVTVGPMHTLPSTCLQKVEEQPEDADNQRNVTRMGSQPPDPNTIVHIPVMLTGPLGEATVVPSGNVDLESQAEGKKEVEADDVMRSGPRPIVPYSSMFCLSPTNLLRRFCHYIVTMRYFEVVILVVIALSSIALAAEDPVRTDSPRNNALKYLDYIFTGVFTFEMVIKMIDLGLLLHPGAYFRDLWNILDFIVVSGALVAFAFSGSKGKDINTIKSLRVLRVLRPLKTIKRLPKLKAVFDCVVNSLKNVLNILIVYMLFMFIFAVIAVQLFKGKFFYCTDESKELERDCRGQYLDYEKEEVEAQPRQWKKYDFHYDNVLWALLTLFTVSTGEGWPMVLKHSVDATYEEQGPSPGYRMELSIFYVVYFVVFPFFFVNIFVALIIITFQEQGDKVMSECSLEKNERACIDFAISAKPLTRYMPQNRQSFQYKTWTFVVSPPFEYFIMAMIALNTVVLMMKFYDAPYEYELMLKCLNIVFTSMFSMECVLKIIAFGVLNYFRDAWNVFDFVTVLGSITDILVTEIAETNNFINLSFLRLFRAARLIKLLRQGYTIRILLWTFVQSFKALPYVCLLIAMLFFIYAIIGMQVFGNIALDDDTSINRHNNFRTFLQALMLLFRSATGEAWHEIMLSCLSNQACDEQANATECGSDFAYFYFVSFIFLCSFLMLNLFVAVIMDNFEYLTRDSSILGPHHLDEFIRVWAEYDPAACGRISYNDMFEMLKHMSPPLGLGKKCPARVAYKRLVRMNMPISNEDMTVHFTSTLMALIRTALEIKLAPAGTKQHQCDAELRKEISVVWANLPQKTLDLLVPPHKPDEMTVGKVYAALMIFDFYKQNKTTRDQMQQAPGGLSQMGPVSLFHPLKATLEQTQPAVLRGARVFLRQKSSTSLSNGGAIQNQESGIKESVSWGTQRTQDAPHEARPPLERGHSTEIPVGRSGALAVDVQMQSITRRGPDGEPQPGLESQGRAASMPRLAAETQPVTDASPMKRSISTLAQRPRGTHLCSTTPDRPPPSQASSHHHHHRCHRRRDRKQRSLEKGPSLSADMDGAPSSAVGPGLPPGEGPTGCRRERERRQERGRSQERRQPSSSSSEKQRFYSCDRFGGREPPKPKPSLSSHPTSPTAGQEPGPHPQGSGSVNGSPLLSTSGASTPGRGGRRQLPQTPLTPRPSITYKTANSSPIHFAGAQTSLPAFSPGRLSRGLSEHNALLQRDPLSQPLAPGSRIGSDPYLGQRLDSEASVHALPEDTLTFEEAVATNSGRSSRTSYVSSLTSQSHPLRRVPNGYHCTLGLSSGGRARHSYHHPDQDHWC
T5 sequence (Q02410 whole entry): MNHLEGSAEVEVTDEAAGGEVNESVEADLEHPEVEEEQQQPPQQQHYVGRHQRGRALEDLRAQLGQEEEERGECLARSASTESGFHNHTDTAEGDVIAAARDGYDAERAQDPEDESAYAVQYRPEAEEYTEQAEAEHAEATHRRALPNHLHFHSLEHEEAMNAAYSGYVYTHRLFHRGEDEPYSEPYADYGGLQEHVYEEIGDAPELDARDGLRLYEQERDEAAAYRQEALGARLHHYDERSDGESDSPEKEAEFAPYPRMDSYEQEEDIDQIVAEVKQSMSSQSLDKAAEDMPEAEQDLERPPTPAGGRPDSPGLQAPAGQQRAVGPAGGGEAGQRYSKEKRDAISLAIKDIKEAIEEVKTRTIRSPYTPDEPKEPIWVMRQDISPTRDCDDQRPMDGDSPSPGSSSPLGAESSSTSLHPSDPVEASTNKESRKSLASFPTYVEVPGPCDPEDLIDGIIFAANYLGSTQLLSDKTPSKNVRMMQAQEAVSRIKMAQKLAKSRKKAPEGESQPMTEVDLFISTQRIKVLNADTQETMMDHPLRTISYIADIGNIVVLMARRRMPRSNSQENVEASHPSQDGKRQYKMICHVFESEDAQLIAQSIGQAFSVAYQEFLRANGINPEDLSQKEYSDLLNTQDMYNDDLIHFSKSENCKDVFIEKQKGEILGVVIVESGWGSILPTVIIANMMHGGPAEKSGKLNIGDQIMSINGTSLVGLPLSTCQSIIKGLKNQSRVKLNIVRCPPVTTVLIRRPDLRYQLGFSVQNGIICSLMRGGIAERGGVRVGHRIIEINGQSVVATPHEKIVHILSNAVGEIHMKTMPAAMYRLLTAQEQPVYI

[14] = molecular target: T5, Voltage-gated N-type calcium channel alpha-1B subunit/Amyloid beta A4 precursor protein-binding family A member 1; test: disruptors of Mint-PDZ/N-type channel peptide interaction – biochemical, HTRF, SAR follow-up (AID 2489); assay type: functional
cells [15] = test: cells
[16] = cytotoxicity toward NIH3T3 fibroblasts, dose response, counter-screen, cell-based, ATP luminescence, mouse fibroblasts (AID 2010); assay type: functional;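 note: cells exposed to compound for about 90 hours before reading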
[17] = inhibitors of intracellular T. cruzi replication, confirmation, NIH3T3 host cells, beta-gal luminescence (AID 2044); assay type: functional, cell-based;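 note: intracellular parasites grown in NIH/3T3 mouse fibroblasts as host cells; luminescent beta-galactosidase reporter signal from transgenic T. cruzi replicating inside host cells; inhibitors lower the luminescence signal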
Protein Tat = Protein Tat (Human immunodeficiency virus type 1 group M subtype B (isolate HXB2)(HIV-1), UniProt P04608); assay type: functional;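 note: tat binding to TAR RNA read out by fluorescence polarization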
[18] = Vero cell cytotoxicity, dose response, cytotoxicity control for Vif-APOBEC3G degradation inhibitor project, Vero cells (AID 1117358); assay type: functional; conditions: Human immunodeficiency virus 1, Vero
Large T antigen = Large T antigen (Simian virus 40, UniProt P03070); assay type: functional, Betapolyomavirus macacae;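 note: Confirmatory-stage PubChem screen for compounds that inhibit SV40 T antigen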
[19] = cytotoxicity toward HT-29 cells – cell-based, CellTiter-Glo luminescence, IC50, dose response (AID 1117330); assay type: functional
[20] = cytotoxicity toward HCT116 cells – cell-based, CellTiter-Glo luminescence, IC50, dose response (AID 1117332); assay type: functional; conditions: HCT-116
[21] = cytotoxicity toward Colo320 cells – cell-based, CellTiter-Glo luminescence, IC50, dose response (AID 1117334); assay type: functional; conditions: COLO 320
[22] = RKO cell viability reduction, dose response, CellTiter-Glo luminescence (AID 1117322); assay type: functional
[23] = Concentration-dependent survival of SW480 colon cancer line, luminescence detection with CellTiter-Glo, half-maximal inhibitory concentration (AID 1117338); assay type: functional
[24] = CellTiter-Glo luminescent dose response of DLD-1 viability loss (AID 1117352); assay type: functional
[25] = HeLa 2N DNA content increase, dose response, cell-based, IC50 (AID 1117349); assay type: functional
[26] = HeLa 4N DNA content increase, dose response, cell-based, IC50 (AID 1117351); assay type: functional
Cytochrome P450 2D6 = Cytochrome P450 2D6 (Homo sapiens, UniProt P10635);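 note: CYP2D6 member of a cytochrome P450 panel assay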
Cytochrome P450 2D6, sequence (P10635 whole entry): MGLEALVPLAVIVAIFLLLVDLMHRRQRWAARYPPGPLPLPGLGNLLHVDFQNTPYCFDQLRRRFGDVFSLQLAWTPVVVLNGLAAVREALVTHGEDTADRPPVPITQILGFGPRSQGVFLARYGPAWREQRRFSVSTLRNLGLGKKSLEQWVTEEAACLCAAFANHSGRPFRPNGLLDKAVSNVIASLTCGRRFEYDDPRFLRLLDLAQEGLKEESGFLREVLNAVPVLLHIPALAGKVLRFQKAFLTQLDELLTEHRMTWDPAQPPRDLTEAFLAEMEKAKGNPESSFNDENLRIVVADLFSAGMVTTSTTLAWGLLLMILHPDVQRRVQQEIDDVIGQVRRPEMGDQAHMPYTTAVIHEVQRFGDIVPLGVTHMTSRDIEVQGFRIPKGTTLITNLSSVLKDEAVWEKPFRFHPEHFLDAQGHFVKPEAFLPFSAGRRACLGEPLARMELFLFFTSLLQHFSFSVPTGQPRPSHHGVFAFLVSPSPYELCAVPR

[27] = A Cell Based Secondary Assay To Explore Cytotoxicity of Compounds that Sensitize Mycobacterium Tuberculosis to Beta-Lactam Antibiotics.; assay type: functional
Streptococcus = test: Luminescence Microorganism-Based Dose Response Follow up to Identify Compounds Cytotoxic to Streptococcus. [Related pubchem assays: 1677 (Project Summary), 1915, 1914, 1902 (Retest at Dose), 1900 (Counter Screen), 1662 (Primary HTS)]; assay type: functional, organism-based
[28] = molecular target: T2, Heat shock protein HSP 90-alpha; test: Luminescence-based dose response biochemical high throughput screening assay for inhibitors of the Heat Shock Protein 90 (HSP90). [Related pubchem assays: 1831 (Summary AID.), 1846 (Confirmation screen.), 1789 (Primary screen.)]
cells [29] = test: cells; remark: listed apart in the source
[30] = molecular target: T6, Microphthalmia-associated transcription factor (Homo sapiens, UniProt O75030); test: TRPM1 promoter luciferase signal decrease, dose response, MITF inhibitor project, cell-based, SK-MEL-5, cherry-picked, set 3 (AID 493073); assay type: functional
T6 sequence (O75030 whole entry): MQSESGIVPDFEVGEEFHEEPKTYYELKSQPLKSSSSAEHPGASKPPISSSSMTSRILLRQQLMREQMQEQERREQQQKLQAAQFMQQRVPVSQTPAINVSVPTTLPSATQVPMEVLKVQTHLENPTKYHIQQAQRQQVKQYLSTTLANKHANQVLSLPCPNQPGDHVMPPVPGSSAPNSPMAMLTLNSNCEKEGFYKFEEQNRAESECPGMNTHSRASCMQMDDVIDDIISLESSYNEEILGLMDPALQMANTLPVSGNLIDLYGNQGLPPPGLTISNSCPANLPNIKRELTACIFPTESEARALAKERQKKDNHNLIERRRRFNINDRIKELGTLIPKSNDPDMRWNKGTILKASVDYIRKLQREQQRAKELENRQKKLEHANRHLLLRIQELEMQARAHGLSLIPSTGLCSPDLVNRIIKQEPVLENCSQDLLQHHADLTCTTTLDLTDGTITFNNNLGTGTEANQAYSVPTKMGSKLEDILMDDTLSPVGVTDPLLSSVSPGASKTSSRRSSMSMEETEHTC

[31] = molecular target: Cyclin-dependent kinase 5/CDK5 activator 1 (Homo sapiens, UniProt Q00535); test: CDK5/p35 kinase inhibitors, dose response, biochemical, cherry-picked samples, set 2 (AID 504545)
HEK293 = test: inhibitors of LMP1-driven NF-kB reporter, dose response, cell-based, HEK293, luciferase, cherry-pick (AID 588343); assay type: functional; conditions: Homo sapiens
[32] = inhibition of ADP-Glo detection reagents, dose response, artefact control for CDK5 inhibitor project, biochemical, luminescence, cherry-picked samples, set 2 (AID 504546); assay type: functional
[33] = HEp-2 cell cytotoxicity, dose response, cytotoxicity control for RSV inhibitor project, HTS (AID 2410); assay type: functional; conditions: human respiratory syncytial virus
Vero = test: cells; assay type: functional, cell-based; conditions: Chlorocebus sabaeus

Mitogen-activated protein kinase 10, sequence (P53779 whole entry): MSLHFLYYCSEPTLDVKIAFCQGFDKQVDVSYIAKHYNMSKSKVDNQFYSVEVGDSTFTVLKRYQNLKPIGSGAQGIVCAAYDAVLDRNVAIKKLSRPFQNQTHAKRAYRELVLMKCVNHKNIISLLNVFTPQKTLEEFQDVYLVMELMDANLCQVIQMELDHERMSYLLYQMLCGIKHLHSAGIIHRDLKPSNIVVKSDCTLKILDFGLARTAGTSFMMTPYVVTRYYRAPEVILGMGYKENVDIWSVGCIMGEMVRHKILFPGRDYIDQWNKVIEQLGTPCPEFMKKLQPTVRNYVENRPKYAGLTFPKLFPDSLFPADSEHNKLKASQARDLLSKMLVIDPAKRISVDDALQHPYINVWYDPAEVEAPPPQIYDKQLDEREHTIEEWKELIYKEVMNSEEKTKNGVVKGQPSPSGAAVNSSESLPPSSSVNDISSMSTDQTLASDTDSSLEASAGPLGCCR

Cc1ccc2c(C)nc(NC3=NCN(Cc4ccccc4)CN3)nc2c1
IC50 [1]: > 93.1 µM (not active)

COc1ccc2cc3cc(C(=O)NCc4cccs4)oc3nc2c1
IC50 [2]: 12.9 µM (not active)
IC50 [3]: 10.7 µM (not active)

Cc1cccc2sc(NC(=O)CN(C)S(=O)(=O)c3cccs3)nc12
EC50 [4]: > 10 µM (not active)

CC1=CN2C(=N)/C(=C/c3ccc([N+](=O)[O-])o3)C(=O)N=C2S1
IC50 [5]: > 80 µM (inactive)
IC50 (NS3): 9.08 µM (active)
EC50 [6]: 23.8 µM (inactive)
EC50 [7]: > 99 µM (inactive)
AC50 [8]: 2.57 µM (active)
AC50 (Caspase-6): 5.85 µM (active)
EC50 [9]: 30.1 µM (inconclusive)

Cc1ccc(C(=O)CC(=O)COc2ccc(Cl)cc2C)cc1
EC50 [10]: 0.82 µM (active)

c1ccc(CNc2ncnc3c2cnn3-c2ccccc2)cc1
EC50 [11]: > 120 µM (not active)
EC50 (H4): > 120 µM (not active)
IC50 [1]: 75.8 µM (not active)
EC50 [12]: 3.43 µM (active)

CC12C=CC(C)(O1)C1C(=O)N(c3ccc4c(c3)OCO4)C(=O)C12 (centres undefined)
IC50 [13]: > 56.8 µM (inactive)
IC50 [14]: > 56.8 µM (inactive)

CCOC(=O)C1CCCN(Cc2ccc(OCc3ccccc3)c(OC)c2)C1 (centres undefined)
EC50 (cells [15]): 0.01 µM (active)
EC50 [16]: > 60 µM (not active)
EC50 [17]: < 0.1 µM (active)

CCN(C(=O)CN1CCN(c2ccc(O)cc2)CC1)c1c(N)n(Cc2ccccc2)c(=O)[nH]c1=O
IC50 (Protein Tat): 68.5 µM (inconclusive)
CC50 [18]: > 40 µM (active)
IC50 (Large T antigen): 7.74 µM (active)

CC(C)(C)[C@H]1CC[C@H](CC2=C(O)C(=O)c3ccccc3C2=O)CC1 [BUPARVAQUONE]
IC50 [19]: 3.39 µM (active)
IC50 [20]: 0.227 µM (active)
IC50 [21]: 0.255 µM (active)
IC50 [22]: 0.133 µM (active)
IC50 [23]: 0.205 µM (active)
IC50 [24]: 0.218 µM (active)
IC50 [25]: > 10 µM (inactive)
IC50 [26]: > 10 µM (inactive)

CCCCN(CC)S(=O)(=O)c1ccc(C(=O)Nc2nnc(CSC)o2)cc1
AC50 (Cytochrome P450 2D6): 35.5 µM (inconclusive)
CC50 [27]: 13.9 µM (active)
EC50 [4]: > 10 µM (not active)

CN(C)c1ccc(C(=O)n2c3ccccc3c3ccccc32)cc1
EC50 (Streptococcus): > 500 µM (not active)

O=S(=O)(Cc1ccccc1)N(O)c1ccccc1
IC50 [28]: 0.913 µM (active)

CCC(C)N1C(=O)S/C(=C/c2ccc(Sc3nc4ccccc4[nH]3)o2)C1=O (centres undefined)
AC50 (Cytochrome P450 2D6): 3.98 µM (inconclusive)
CC50 [18]: 28.7 µM (active)

Nc1nnnn1/N=C/c1ccc(O)cc1
IC50 (cells [29]): 2.58 µM (active)

N=C(NOC(=O)c1ccccc1)c1ccccn1
AC50 [30]: 11.9 µM (active)
AC50 [31]: 20.6 µM (active)
AC50 (HEK293): 8.6 µM (active)
AC50 [32]: 37.5 µM (active)

Cc1nn(Cc2c(Cl)cccc2Cl)c(C)c1NC(=O)c1cc(C(C)C)on1
IC50 (cells [29]): 11.3 µM (active)
CC50 [33]: 16.8 µM (active)
IC50 (Vero): 10.5 µM (active)

O=C(NCCc1cccc(Cl)c1)c1cc(-c2ccco2)nc2ccccc12
IC50 [13]: > 56.8 µM (inactive)
IC50 [14]: > 56.8 µM (inactive)
